Experiment: RSSH generation and quantification of cyclic ureas by UPLC-MS with HPE-IAM or NEM trap
Assay type: physicochemical
Description: Precursor 1a was dissolved in DMSO to afford a 1 mM stock solution. Similarly, HPE-IAM and N-ethyl maleimide (NEM) were independently dissolved in DMSO to obtain 50 mM stock solutions. To a 20 mL scintillation vial, HPE-IAM or NEM (30 μL, 50 mM) was added in pH 7.4 ammonium bicarbonate buffer (2.94 mL) containing the DTPA (100 μM). The resulting solution was pre-incubated at 37° C. for 10 min. Precursor 1a (30 μL, 1 mM) was then added into the mixture and incubated for 15 min at 37° C. An aliquot of the reaction mixture (500 μL) was withdrawn, 4-hydroxyphenylacetamide (10 μM) was added as internal standard, and analyzed using UPLC-MS as follows: Mobile phase: 0-1 min 90% water+0% ACN+10% formic acid (0.1%); 1-7.5 min gradient up to 10% water+80% ACN+10% formic acid (0.1%); 7.5-8.4 min 10% water+80% ACN+10% formic acid (0.1%); 8.4-8.5 min gradient up to 90% water+0% ACN+10% formic acid (0.1%), 8.5-10 min 90% water+0% ACN+10% formic acid (0.1%). Flow rate=0.3 mL/min. […] These studies were conducted at least in triplicate and representative spectra are presented.
Precursors 7a-d (10 μM) were independently incubated with HPE-IAM (500 μM) in pH 7.4 ammonium bicarbonate buffer (50 mM) containing DTPA (100 μM) at 37° C. The reaction mixture (500 μL) was analyzed using UPLC-MS. To quantify 2a-d generated from these precursors, a calibration curve of each individual cyclic urea with known concentrations was independently generated.
Precursor 1a was dissolved in DMSO to afford a 1 mM stock solution. Similarly, HPE-IAM was dissolved in DMSO to obtain a 50 mM stock solution. To a 20 mL scintillation vial, HPE-IAM (30 μL, 50 mM) was added in pH 7.4 ammonium bicarbonate buffer (2.94 mL) containing the DTPA (100 μM). The resulting solution was pre-incubated at 37° C. for 10 min. Precursor 1a (30 μL, 1 mM) was then added into the mixture and incubated for 15 min at 37° C. An aliquot of the reaction mixture (500 μL) was withdrawn and analyzed using UPLC-MS as follows: Mobile phase: 0-1 min 90% water+0% ACN+10% formic acid (0.1%); 1-7.5 min gradient up to 10% water+80% ACN+10% formic acid (0.1%); 7.5-8.4 min 10% water+80% ACN+10% formic acid (0.1%); 8.4-8.5 min gradient up to 90% water+0% ACN+10% formic acid (0.1%), 8.5-10 min 90% water+0% ACN+10% formic acid (0.1%). Flow rate=0.3 mL/min. The mass signals for product of RSSH trapping with HPE-IAM were obtained via deconvolution using MassLynx 4.1 software. These studies were conducted at least in triplicate and representative spectra are presented.
Precursors 7a-d (10 μM) were independently incubated with HPE-IAM (500 μM) in pH 7.4 ammonium bicarbonate buffer (50 mM) containing DTPA (100 μM) at 37° C. This reaction mixture was analyzed by UPLC-MS as follows: Mobile phase: 0-1 min 90% water+0% ACN+10% formic acid (0.1%); 1-7.5 min gradient up to 10% water+80% ACN+10% formic acid (0.1%); 7.5-8.4 min 10% water+80% ACN+10% formic acid (0.1%); 8.4-8.5 min gradient up to 90% water+0% ACN+10% formic acid (0.1%), 8.5-10 min 90% water+0% ACN+10% formic acid (0.1%). Flow rate=0.3 mL/min. To quantify 2a-d generated from these precursors, a calibration curve of each individual cyclic urea with known concentrations was independently generated.

With `CNCCN(C)C(=O)SSCC(NC(C)=O)C(=O)OC` (stereo not drawn) [Precursor 1a, 2-(((2-Acetamido-3-methoxy-3-oxopropyl)disulfannecarbonyl)(methyl)amino)-N-methylethan-1-aminium] the “yield of byproduct 2a” value (NEM 50 equiv., pH 7.4 buffer) was 74%, the “yield of cyclic urea byproduct” value (precursor 10 μM, HPE-IAM 500 μM (50 equiv.), pH 7.4 ammonium bicarbonate buffer, 37° C.) was 52% and the “byproduct 2a formation” value (precursor 10 μM, NEM 500 μM, pH 7.4 ammonium bicarbonate buffer, 37° C., 15 min) was 7.4 ± 0.2 µM.

From US11584712B2, “Alkylamine-substituted perthiocarbamates as dual precursors to hydropersulfide and carbonyl sulfide” (The Johns Hopkins University, priority 2020, dated 2023)
